Laboratory results from PubChem BioAssay (NCI).
Where “and” joins values, the source holds several entries; their conditions need not be identical. Equal values may be shown once.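 1) Cells in 96-well plates. 2) Compound, 48 h, 5 concentrations. 3) Linear interpolation between surrounding doses. 4) Unreached endpoint = highest concentration. GI50 marks 50% less growth. TGI is the concentration that stops growth completely.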

Legend:
Assay in all cases: DTP human tumour cell line panel, 48 h
[1] = test system: UACC-62 melanoma
[2] = test system: MALME-3M melanoma
[3] = test system: RPMI-8226 leukemia
[4] = test system: EKVX NSCLC
[5] = test system: M14 melanoma
[6] = test system: SNB-75 CNS
[7] = test system: ACHN renal
[8] = test system: SF-295 CNS
[9] = test system: HOP-62 NSCLC
[10] = test system: UACC-257 melanoma

SMILES	GI50 [1]	TGI [1]	GI50 [2]	TGI [2]	GI50 [3]	TGI [3]	GI50 [4]	TGI [4]	GI50 [5] [µM]	TGI [5] [µM]	GI50 [6]	TGI [6]	GI50 [7]	TGI [7]	GI50 [8]	TGI [8]	GI50 [9]	TGI [9]	GI50 [10] [µM]	TGI [10] [µM]
CCCCCCCCCCCCOC1C(C(COC2OC(C(O)CO)C3OC(C)(C)OC23)OC(=O)Nc2ccc([N+](=O)[O-])cc2)OC2OC(C)(C)OC21 (centres undefined)	2.06 µM	4.61 µM	3.16 µM	9.64 µM	2.7 µM	7.2 µM	2.34 µM	6.21 µM	1.81	3.44	3.64 µM	16.1 µM	3.4 µM	10.6 µM	2.21 µM	5.48 µM	1.95 µM	3.8 µM	3.53	9.35
Cc1cc(N2CCOCC2)nc(N(CCNc2ccnc3cc(Cl)ccc23)Cc2cccs2)n1	1.9 µM	3.65 µM	2.06 µM	3.72 µM	1.87 µM	4.04 µM	2.79 µM	44 µM	1.79	3.41	1.98 µM	5.25 µM	1.91 µM	3.79 µM	1.58 µM	3.13 µM	2.44 µM	6.52 µM	1.88	3.6
COc1cc(OC)c(-c2oc3ccccc3c(=O)c2O)c(OC)c1		> 100 µM		98.3 µM		> 100 µM		> 100 µM		> 100		> 100 µM		> 100 µM		> 26.9 µM		> 31.5 µM		> 100
Nc1cc2[nH]c(=O)c3cc(Cl)ccc3c2cc1Cl		> 100 µM		44.6 µM		> 100 µM		> 100 µM		> 100		61.8 µM		22.4 µM		44.2 µM		63.1 µM		53.4
O=C(NC(c1ccccc1)C(O)C(=O)OCc1ccc2c(c1)C(=O)c1ccccc1C2=O)c1ccccc1 (centres undefined)		53 µM		37.9 µM		> 68.1 µM		> 83.1 µM		> 80.5		24.6 µM		43.7 µM		69.4 µM		9.82 µM		> 72
CCN(CC)CCC(CNc1c2ccc(Cl)cc2nc2ccc(OC)cc12)c1ccccc1 (centres undefined)	1.58 µM	3.06 µM	1.87 µM	3.56 µM	1.33 µM	3.85 µM	2.32 µM	8.3 µM	1.78	3.44	1.49 µM	2.83 µM	1.05 µM	3.19 µM	1.41 µM	3.02 µM	1.16 µM	3.11 µM	2.01	3.63
O=C(Nc1cccc(Cl)c1)c1cc2cc(N=Nc3ccc(Br)cc3)ccc2oc1=O		39.1 µM		> 100 µM		> 100 µM		> 100 µM		52.9		> 100 µM		> 100 µM		> 100 µM		> 100 µM		> 100
N#Cc1ccccc1C#C/C=C\C#Cc1cnccn1	14.5 µM	> 89.9 µM	22.3 µM	81.4 µM	2.71 µM	> 21.5 µM	44.1 µM	> 100 µM	5.78	13.8	> 73.9 µM	> 100 µM	32.9 µM	98.7 µM	6 µM	> 25 µM	29.3 µM	> 64.6 µM	26.5	> 82.3
COc1ccc(/C=C2\CC(C)CC3C2=NN(C(C)=O)C3c2ccc(OC)c(OC)c2)cc1OC (centres undefined)	16.2 µM	33.3 µM	20.1 µM	36.3 µM	8.19 µM	32 µM	19.2 µM	70.1 µM	15.1	28.7	24.8 µM	54.3 µM	17.6 µM	46.5 µM	19.9 µM	50.2 µM	17.1 µM	37.2 µM	18.1	33.9
C[CH2][Ge]1([CH2]C)[CH2]CC2(CCN(CCCN(C)C)C2)C[CH2]1	0.875 µM and 1.57 µM	1.78 µM and 3.19 µM	1.05 µM and 2.65 µM	1.96 µM and 4.33 µM	0.234 µM and 1.47 µM	0.976 µM and 2.52 µM	1.7 µM and 2.33 µM	6.56 µM and 4.44 µM	0.333	0.624	0.175 µM and 1.48 µM	1.84 µM and 3.24 µM	1.84 µM and 1.7 µM	3.66 µM and 3.95 µM	1.7 µM and 2.42 µM	3.17 µM and 3.67 µM	0.949 µM and 4.87 µM	1.89 µM and 9.25 µM	1.31	2.64
CC(=O)OC1C(OC/C2=C/C3[C@@H](C(C)C)CC=C(C)[C@@H]3CC(OC(=O)/C=C/c3cn(C)cn3)[C@]3(C)C=C[C@@]2(O)O3)OCC(O)C1O (some centres undefined)	0.0242 µM	> 50 µM	0.0195 µM	> 50 µM	0.0244 µM	> 50 µM	0.0707 µM	> 50 µM			0.00575 µM	0.0319 µM	0.381 µM	> 50 µM	0.03 µM	0.296 µM	0.0246 µM		0.0188	> 50
CC(=O)OC12CCCCC1C1(CCCC1)NC2=O (centres undefined)		> 100 µM		> 100 µM		> 100 µM		> 100 µM		> 100		> 100 µM		> 100 µM		> 100 µM		> 100 µM		> 100
Cc1ccc(S(=O)(=O)c2ccccn2)cc1		> 100 µM		> 100 µM		> 100 µM		> 100 µM		> 100		> 100 µM		> 100 µM		> 100 µM		> 100 µM		> 100
O=C1OC2C(O)COC2(OCc2c[nH]c3ccccc23)C1O (centres undefined) (tested in a mixture with another compound)		> 100 µM		> 100 µM		> 100 µM		> 100 µM		> 100		> 100 µM				> 100 µM		> 100 µM		> 100
Cn1c(N)cc(=O)nc1N		> 100 µM		> 100 µM		> 100 µM		> 100 µM		> 100		> 100 µM		> 100 µM		> 100 µM		> 100 µM		
COc1ccc(/C=C(\NC(=O)c2ccccc2)c2nc3ccccc3[nH]2)cc1		> 100 µM		> 100 µM		69.9 µM		> 100 µM		> 100		99.4 µM		> 100 µM				> 100 µM		58.7
